system: CD4+T cells; assay: CFSE dilution proliferation of CD4+ T cells in PBMC of heavy smokers; type: cell-based, human; conditions: PBMC from 5 heavy smokers negative for lung cancer by CT; peptide approximately 2 μg/ml; 6 days; one or more of the peptides
Excerpt: The amino acid sequence of the whole CB1 protein was synthesized as a series of peptides (generally 12-15 amino acids in length) that overlap by 11 amino acids (each peptide is offset by 4 amino acids). This approach is used when HLA of the subjects being tested is unknown and when there is a potential for multiple reactive peptides restricted by a variety of HLA molecules. It is also useful when the blood collection volumes are too small for dendritic cell generation, and other antigen presenting cells in the peripheral blood are counted on to present peptides without the need for further antigen processing.
Peripheral blood was collected into vaccutainers containing heparin sulfate and processed to obtain peripheral blood mononuclear cells (PBMC) by density centrifugation. PBMC were washed in PBS and labeled with 5 μM CFSE (Invitrogen) in warmed 0.1% FBS in PBS for 10 minutes at 37° C. The CFSE was quenched with 3 volumes of ice cold complete RPMI and incubated for 5 minutes before washes with complete RPMI. PBMC were then resuspended in media containing anti-CD28 and anti-CD49d antibodies for additional costimualtion. Wells coated with anti-CD3 were used as positive controls. Peptides were added at approximately 2 μg/ml. No peptide was added to negative control wells. After 6 days, cells were stained for cell surface markers and tested for proliferation by CFSE dilution using flow cytometry. Peptides that induced proliferation above that seen in the wells receiving no peptides were considered to be stimulatory.

Sequence | CD4+ T cell proliferation in response to peptide, above background (no peptide)
LQETMYMTVSIIDRF [Pep62, cyclin B1 amino acids 219-233] | show proliferation
KFRLLQETMYMTVSI [Pep61, cyclin B1 amino acids 215-229] | show proliferation
MYMTVSIIDRFM [Pep63, cyclin B1 amino acids 223-234] | show proliferation
